The assay concerns the target T1, human CB2R (Homo sapiens, UniProt P34972).
T1 construct: host or cells: CHO cells
Put plainly: CB2R mediated modulation of cAMP synthesis. It is filed as cell-based. The settings on record: CHO cells expressing human CB2R; concentration at which 50% of the forskolin-stimulated cAMP synthesis was inhibited; 100% defined by 1 uM CP55940; read-out: CB2 EC50. How it is done:
B. CB2R Mediated Modulation of Camp Synthesis:
Compounds of the invention were evaluated for their CB2 agonist or inverse agonistic activity in accordance with the following experimental method.
CHO cells expressing human CB2R (Euroscreen) were plated at a density of 5000 cells per well in 384 well plates and incubated overnight at 37° C. After removing the media, the cells were treated with test compounds diluted in stimulation buffer containing 1 mM IBMX, 0.25% BSA and 10 uM Forskolin. The assay was incubated for 30 minutes at 37° C. Cells were lysed and the cAMP concentration was measured using DiscoverX-XS cAMP kit, following the manufacturer's protocol. In this setting, agonists will decrease forskolin induced production of cAMP while inverse agonists will further increase forskolin induced production of cAMP. EC50 of agonists were calculated as follows. The maximal amount of cAMP produced by forskolin compared to the level of cAMP inhibited by 1 uM CP55940 is defined as 100%. The EC50 value of each test compound was determined as the concentration at which 50% of the forskolin-stimulated cAMP synthesis was inhibited. Data was analyzed using a four-parameter logistic model. (Model 205 of XLfit 4.0).
T1 sequence (P34972 whole entry): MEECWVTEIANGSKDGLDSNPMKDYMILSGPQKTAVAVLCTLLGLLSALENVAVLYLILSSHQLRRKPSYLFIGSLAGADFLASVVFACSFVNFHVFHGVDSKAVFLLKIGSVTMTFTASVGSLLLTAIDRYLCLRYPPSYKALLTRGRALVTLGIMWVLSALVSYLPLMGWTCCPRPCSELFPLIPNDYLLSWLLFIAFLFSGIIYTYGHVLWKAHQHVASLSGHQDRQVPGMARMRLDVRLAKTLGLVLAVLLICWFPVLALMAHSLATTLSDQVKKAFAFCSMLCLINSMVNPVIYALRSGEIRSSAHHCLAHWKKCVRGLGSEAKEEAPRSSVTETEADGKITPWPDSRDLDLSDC
In the case of `CC(C)(C)c1cc(-c2nnc(C(C)(C)S(=O)(=O)c3ccc(F)cc3)s2)no1` [Example 40, 2-(5-tert-butyl-isoxazol-3-yl)-5-[1-(4-fluoro-benzenesulfonyl)-1-methyl-ethyl]-[1,3,4]thiadiazole], the EC50 amounted to 17 nM.
The figure for `CC(C)(C)c1cc(-c2nnc(C(C)(C)S(=O)(=O)Cc3ccc(F)cc3)o2)on1` [Example 31, 2-(3-tert-butyl-isoxazol-5-yl)-5-[1-(4-fluoro-phenylmethanesulfonyl)-1-methyl-ethyl]-[1,3,4]oxadiazole] is 162 nM; for `CC(C)(C)c1cc(-c2nnc(C(C)(C)S(=O)(=O)Cc3ccc(F)cc3)[nH]2)on1` [Example 49, 3-(3-tert-Butyl-isoxazol-5-yl)-5-[1-(4-fluoro-phenylmethanesulfonyl)-1-methyl-ethyl]-4H-[1,2,4]triazole] it is 293 nM.
Turning to `Cn1nc(C(C)(C)C)cc1-c1cnc(C(C)(C)S(=O)(=O)c2ccc(Cl)cc2)o1` [Example 8, 5-(5-tert-butyl-2-methyl-2H-pyrazol-3-yl)-2-[1-(4-chloro-benzenesulfonyl)-1-methyl-ethyl]-oxazole], the EC50 was 22 nM.
With `CC(C)(C)c1cc(-c2noc(C(C)(C)S(=O)(=O)CC3CCOCC3)n2)on1` [Example 36, 3-(3-tert-butyl-isoxazol-5-yl)-5-[1-methyl-1-(tetrahydro-pyran-4-ylmethanesulfonyl)-ethyl]-[1,2,4]oxadiazole], the EC50 stood at 15 nM.
Consider `Cn1nc(C(C)(C)C)cc1-c1coc(C(C)(C)S(=O)(=O)c2ccc(F)cc2)n1` [Example 2, 4-(5-tert-butyl-2-methyl-2H-pyrazol-3-yl)-2-[1-(4-fluoro-benzenesulfonyl)-1-methyl-ethyl]-oxazole], for which the EC50 stood at 0.35 nM.
Regarding `CC(C)(C)c1cc(-c2coc(C(C)(C)S(=O)(=O)c3ccc(Cl)cc3)n2)no1` [Example 7, 5-tert-butyl-3-{2-[1-(4-chloro-benzenesulfonyl)-1-methyl-ethyl]-oxazol-4-yl}-isoxazole], the EC50 was 0.9 nM.
Regarding `CC(C)(C)c1cc(-c2noc(C(C)(C)S(=O)(=O)c3ccc(F)cc3)n2)on1` [Example 34, 3-(3-tert-butyl-isoxazol-5-yl)-5-[1-(4-fluoro-benzenesulfonyl)-1-methyl-ethyl]-[1,2,4]oxadiazole], the concentration giving a half-maximal response (EC50) came out at 1.8 nM.

As a reminder, the EC50 is the concentration at which the effect is half-maximal.
